Reference: patent US5326766A, “4-(2-(4-(2-pyridinyloxy)phenyl)ethoxy)quinazoline and analogues thereof” (priority 1992, dated 1994)

Legend:
[1] = system: Puccinia recondita tritici (leaf rust); experiment: Foliar spray fungicide test, Puccinia recondita tritici (leaf rust) on wheat; conditions: Puccinia recondita, in Triticum aestivum, foliar, read-out: PUCCRT disease control, host wheat, 400 ppm (+++: 100 ppm)
Procedure: (§3) The test compounds were formulated for application by dissolving 50 mg of the compound into 1.25 ml of solvent. The solvent was prepared by mixing 50 ml of "Tween 20" (polyoxyethylene (20) sorbitan monolaurate emulsifier) with 475 ml of acetone and 475 ml of ethanol. The solvent/compound solution was diluted to 125 ml with deionized water. The resulting formulation contains 400 ppm test chemical. Lower concentrations were obtained by serial dilution with the solvent-surfactant mixture.
The formulated test compounds were applied by foliar spray. The following plant pathogens and their corresponding plants were employed.
Puccinia recondita PUCCRT wheat
(§4) The formulated technical compounds were sprayed on all foliar surfaces of the host plants to past run-off. Single pots of each host plant were placed on raised, revolving pedestals in a fume hood. Test solutions were sprayed on all foliar surfaces. All treatments were allowed to dry and the plants were inoculated with the appropriate pathogens within 24 hours.
(§5) The effectiveness of test compounds in controlling disease was rated using the following scale.

[2] = system: Southern corn rootworm (Diabrotica undecimpuctata howardi Barber); experiment: whole plant or invertebrate; type: in vivo; conditions: 400 ppm, soil concentration of 24 ppm, 3-4 days, read-out: SCRW mortality
Procedure: (§1) The compounds identified in Table I were tested for miticidal and insecticidal activity against eight species. The following abbreviations are used in the Table III:
SCRW refers to southern corn rootworm
(§2) In conducting evaluations of insecticidal activity, each test compound was formulated as a 400 ppm solution, and this solution was then diluted with water to give lesser concentrations. The 400 ppm solution was prepared by combining 19.2 mL of 0.05% solution of Tween 20 (polyoxyethylene (20) sorbitan monolaurate) in water with a solution of 8 mg of the compound in 0.8 mL of acetone/EtOH (9/1).
Activity on Southern corn rootworm (Diabrotica undecimpuctata howardi Barber) was evaluated by adding one mL of test solution containing a predetermined concentration of test compound to a cup containing a kernel of corn in 16 g of sterile soil. This produces a soil concentration of 24 ppm. After 1.5 to 2 hours of drying, five 4th instar corn rootworm larvae were added to the individual cups. Mortality was measured at 3-4 days by emptying the cup onto a pan and inspecting the soil for live rootworms.

[3] = system: beet armyworm (Spodoptera exiqua); experiment: Activity against beet armyworm; type: in vivo; conditions: Spodoptera, 144 h, 6 days, read-out: BAW activity (rated on live and dead larvae and size of live larvae)
Procedure: as §1
BAW refers to beet armyworm
as §2
Activity against beet armyworm (Spodoptera exiqua) was evaluated as follows. The test is run using concentrations of 400 ppm and 50 ppm. A general purpose lepidoptera artificial diet was diluted to half strength with a 5% non nutritive agar. 8 mL of this diet material was dispensed into one ounce diet cups. One hour prior to treatment, 35 to 40 eggs were dispensed onto the diet surface. The cups were then sprayed with formulated material through a flat-fan nozzle. Treated cups were air dried prior to sealing with plastic caps. The cups were held for 6 days at room temperature. Activity was then rated based on the total number of live and dead larvae, and on the size of live larvae.

[4] = system: Leptosphaeria nodorum (glume blotch); experiment: Foliar spray fungicide test, Leptosphaeria nodorum (glume blotch) on wheat; conditions: Parastagonospora nodorum, in Triticum aestivum, foliar, read-out: LETPNO disease control, host wheat, 400 ppm (+++: 100 ppm)
Procedure: as §3
(§6) The formulated test compounds were applied by foliar spray.
as §4, §5

[5] = system: Pyricularia oryzae (rice blast); experiment: whole plant or invertebrate; type: in vivo; conditions: Pyricularia oryzae, foliar, read-out: PYRIOR disease control, host rice; foliar spray; 400 ppm (+++: 100 ppm)
[6] = system: Plasmopara viticola (downy mildew); experiment: Foliar spray fungicide test, Plasmopara viticola (downy mildew) on grape; conditions: Plasmopara viticola, foliar, read-out: PLASVI disease control
Procedure: as §3, §6, §4, §5

[7] = system: cotton aphid (Aphis gossypii); experiment: whole plant or invertebrate; conditions: 72 h; for mortality at 50 ppm: read-out: CA activity (percent based on aphids present in plants sprayed with solvent alone), 50 ppm, squash plants, three days after treatment; for mortality at 400 ppm: read-out: CA activity (percent based on aphids present in plants sprayed with solvent alone), 400 ppm, squash plants, three days after treatment
[8] = system: tobacco budworm (Heliothis virescens); experiment: Activity against tobacco budworm; type: in vivo; conditions: Heliothis virescens, 144 h, 6 days, read-out: TBW activity (rated on live and dead larvae and size of live larvae)
Procedure: as §1
TBW refers to tobacco budworm
as §2
Activity against tobacco budworm (Heliothis virescens) was evaluated as follows. A general purpose lepidoptera artificial diet was diluted to half strength with a 5% non nutritive agar. 8 mL of this diet material was dispensed into each one ounce diet cup. One hour prior to treatment 18 to 20 eggs were dispensed onto the diet surface. The cups were then sprayed with formulated material through a flat-fan nozzle. The test was run using concentrations of 400 ppm and 50 ppm. Treated cups were air dried prior to sealing with plastic caps. The cups were held for 6 days at room temperature. Activity was then rated based on the total number of live and dead larvae, and on the size of live larvae.

[9] = system: aster leafhopper (Macrosteles fascifrons); experiment: whole plant or invertebrate; type: in vivo; conditions: Macrosteles fascifrons, 24 h, read-out: ALH percent mortality
Procedure: as §1
ALH refers to aster leafhopper
as §2
Activity against aster leafhopper (Macrosteles fascifrons) was tested as follows. The test was run using concentrations of 400 ppm and 50 ppm. One ounce plastic cups containing a cotton wick was sprayed with 0.4 mL of formulated material using a flat-fan nozzle. The excess moisture was allowed to evaporate. Then five to ten carbon dioxide anesthetized adult leafhoppers were added to each cup. The cups were capped and held at room temperature for 24 hours. Percent mortality was then determined.

[10] = system: Erysiphe graminis tritici (powdery mildew); experiment: Foliar spray fungicide test, Erysiphe graminis tritici (powdery mildew) on wheat; conditions: Blumeria graminis, in Triticum aestivum, foliar, read-out: ERYSGT disease control, host wheat, 400 ppm (+++: 100 ppm)
[11] = system: German cockroach (Blattella germanicus); experiment: whole plant or invertebrate; type: in vivo; conditions: 240 h, ten days, read-out: GECR activity (rated on live and dead insects)
Procedure: as §1
GECR refers to German cockroach
as §2
Activity against German cockroach (Blattella germanicus) was evaluated as follows. 8 mL of alfalfa based green insect diet material was dispensed into a one ounce diet cup. The cups were then sprayed with formulated material through a flat-fan nozzle. The test was run using concentrations of 400 ppm and 50 ppm. Treated cups were air dried for 24 hours and infested with five late third or early fourth instar German cockroaches. The cups were capped and held for ten days in an environmental growth chamber at a temperature of […]. Activity was then rated based on the total number of live and dead insects.

[12] = system: two spotted spider mite (Tetranychus urticae); experiment: whole plant or invertebrate; conditions: 72 h; for mortality at 50 ppm: read-out: TSSM activity (percent based on mites present in plants sprayed with solvent alone), 50 ppm, squash plants, three days after treatment; for mortality at 400 ppm: read-out: TSSM activity (percent based on mites present in plants sprayed with solvent alone), 400 ppm, squash plants, three days after treatment

SMILES	pest or weed control at 400 µg/mL [1] [%]	mortality at 24 ppm [2] [%]	pest or weed control at 50 ppm [3] [%]	pest or weed control at 400 ppm [3] [%]	pest or weed control at 400 µg/mL [4] [%]	pest or weed control at 400 µg/mL [5] [%]	pest or weed control at 400 µg/mL [6] [%]	mortality at 50 ppm [7] [%]	mortality at 400 ppm [7] [%]	pest or weed control at 50 ppm [8] [%]	pest or weed control at 400 ppm [8] [%]	mortality at 50 ppm [9] [%]	mortality at 400 ppm [9] [%]	pest or weed control at 400 µg/mL [10] [%]	mortality at 50 ppm [11] [%]	mortality at 400 ppm [11] [%]	mortality at 50 ppm [12] [%]	mortality at 400 ppm [12] [%]
Fc1cccc2c(NCCc3ccc(Oc4ncc(C(F)(F)F)cc4Cl)cc3)ncnc12 [Compound 1]	90 to 100	80	100	100	90 to 100	90 to 100	90 to 100	0	0	100	0	100	100	90 to 100	0	20	0	0
Fc1cc(C(F)(F)F)cnc1Oc1ccc(CCOc2ncnc3cccc(F)c23)cc1 [Compound 7]	0 to 19	0	100	100	0 to 19	0 to 19	0 to 19	100	100	100	100	100	80	0 to 19	0	0	100	100
Fc1cc(C(F)(F)F)cnc1Oc1ccc(CCOc2ncnc3c(F)cccc23)cc1 [Compound 5]	90 to 100	100		100	0 to 19	90 to 100	90 to 100		100		100		100	90 to 100		100		100
Fc1cccc2c(OCCc3ccc(Oc4cc(C(Cl)(Cl)Cl)cc(Cl)n4)cc3)ncnc12 [Compound 34]	20 to 89	0	0	100	0 to 19	20 to 89	0 to 19	0	0	0	80	40	20	0 to 19	0	0	0	0
FC(F)(F)c1ccc(Oc2ccc(CCNc3ncnc4ccccc34)cc2)nc1 [Compound 29]	90 to 100	100	100	100	20 to 89	90 to 100	90 to 100	90	100	100	100	100	100	90 to 100	0	20	100	100
N#Cc1ccc(Oc2ccc(CCOc3ncnc4ccccc34)cc2)nc1 [Compound 21]	90 to 100	0		0	20 to 89	20 to 89	90 to 100		100		0		60	20 to 89		0		0
Fc1cccc2c(OCCc3ccc(Oc4ccc(C(Cl)(Cl)Cl)cn4)cc3)ncnc12 [Compound 25]	90 to 100	0		0	0 to 19	20 to 89	90 to 100		85		100		0	20 to 89		0		90
Fc1cccc2ncnc(OCCc3ccc(Oc4ccc(Cl)cn4)cc3)c12 [Compound 16]	90 to 100	80	100	100	20 to 89	90 to 100	90 to 100	100	100	100	100	80	100	90 to 100	0	40	100	100
Fc1cccc2ncnc(OCCc3ccc(Oc4nc(Cl)c(Cl)cc4Cl)cc3)c12 [Compound 43]	0 to 19	0	0	0	0 to 19	0 to 19		0	0	0	0	0	0	0 to 19	0	0	0	0
